# Reference: the supplement of paper PMC11451515
# Test system: NOMO1
# Assay: cell viability relative to DMSO control; higher = less cytotoxic
# Settings: 48 h
# Method in brief: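 In 1536-well plates, 5 μl of leukemia cells were seeded per well: 500 cells/well for NOMO1 or SEM and 1000 cells/well for P12-Ichikawa. Each line had first been adapted for at least four passages in each medium. Library compounds in DMSO were pin-dosed at 11 threefold concentrations between 47 μM and 0.79 nM, and CellTiter-Glo One luminescence was read after 48 h at 37°C. Viability is a per-plate percentage relative to DMSO wells, with cell-free wells as background.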
# [1] = HPLM + 10% dialyzed FBS, 0.000781 µM
# [2] = HPLM + 10% dialyzed FBS, 0.00234 µM
# [3] = HPLM + 10% dialyzed FBS, 0.00702 µM
# [4] = HPLM + 10% dialyzed FBS, 0.0211 µM
# [5] = HPLM + 10% dialyzed FBS, 0.0632 µM
# [6] = HPLM + 10% dialyzed FBS, 0.19 µM
# [7] = HPLM + 10% dialyzed FBS, 0.569 µM
# [8] = HPLM + 10% dialyzed FBS, 1.71 µM
# [9] = HPLM + 10% dialyzed FBS, 5.12 µM
# [10] = HPLM + 10% dialyzed FBS, 15.4 µM
# [11] = HPLM + 10% dialyzed FBS, 46.1 µM
# [12] = RPMI 5 mM glucose + 10% FBS, 0.000781 µM
# [13] = RPMI 5 mM glucose + 10% FBS, 0.00234 µM
# [14] = RPMI 5 mM glucose + 10% FBS, 0.00702 µM
# [15] = RPMI 5 mM glucose + 10% FBS, 0.0211 µM
# [16] = RPMI 5 mM glucose + 10% FBS, 0.0632 µM
# [17] = RPMI 5 mM glucose + 10% FBS, 0.19 µM
# [18] = RPMI 5 mM glucose + 10% FBS, 0.569 µM
# [19] = RPMI 5 mM glucose + 10% FBS, 1.71 µM
# [20] = RPMI 5 mM glucose + 10% FBS, 5.12 µM
# [21] = RPMI 5 mM glucose + 10% FBS, 15.4 µM
# [22] = RPMI 5 mM glucose + 10% FBS, 46.1 µM
# [23] = RPMI 5 mM glucose + 10% dialyzed FBS, 0.000781 µM
# [24] = RPMI 5 mM glucose + 10% dialyzed FBS, 0.00234 µM
# [25] = RPMI 5 mM glucose + 10% dialyzed FBS, 0.00702 µM
# [26] = RPMI 5 mM glucose + 10% dialyzed FBS, 0.0211 µM
# [27] = RPMI 5 mM glucose + 10% dialyzed FBS, 0.0632 µM
# [28] = RPMI 5 mM glucose + 10% dialyzed FBS, 0.19 µM
# [29] = RPMI 5 mM glucose + 10% dialyzed FBS, 0.569 µM
# [30] = RPMI 5 mM glucose + 10% dialyzed FBS, 1.71 µM
# [31] = RPMI 5 mM glucose + 10% dialyzed FBS, 5.12 µM
# [32] = RPMI 5 mM glucose + 10% dialyzed FBS, 15.4 µM
# [33] = RPMI 5 mM glucose + 10% dialyzed FBS, 46.1 µM
Structure (SMILES),cell viability [1] [%],cell viability [2] [%],cell viability [3] [%],cell viability [4] [%],cell viability [5] [%],cell viability [6] [%],cell viability [7] [%],cell viability [8] [%],cell viability [9] [%],cell viability [10] [%],cell viability [11] [%],cell viability [12] [%],cell viability [13] [%],cell viability [14] [%],cell viability [15] [%],cell viability [16] [%],cell viability [17] [%],cell viability [18] [%],cell viability [19] [%],cell viability [20] [%],cell viability [21] [%],cell viability [22] [%],cell viability [23] [%],cell viability [24] [%],cell viability [25] [%],cell viability [26] [%],cell viability [27] [%],cell viability [28] [%],cell viability [29] [%],cell viability [30] [%],cell viability [31] [%],cell viability [32] [%],cell viability [33] [%]
OC[C@H]1OCC(O1)[N@@]2C=CC(N)=NC2=O (some centres not stated),115,127,101,105,117,113,131,86.7,121,126,94.8,114,123,118,116,114,127,118,113,122,108,108,103,133,112,109,125,111,117,113,120,113,113
COc1ccc(C(C)=O)c(O)c1,115,114,109,121,111,93.7,98,45.9,41.4,23.9,26.2,116,111,119,118,116,127,112,56.6,64.8,20.1,22.6,111,115,105,105,124,129,123,75.6,59.9,25.7,24.2
CN1\C(=C(\O)C2=CC=CC=C2[S+]1([O-])=O)C(=O)NC3=NC=C(C)S3,101,111,101,114,99.5,116,113,116,102,86.1,116,81.1,91.5,88.4,91.7,98.7,96.8,101,88.3,96.7,99.3,95.9,84.2,86.3,85.6,81.9,81.5,93.6,79.6,76,91.9,92.7,91.8
O=C1c2c(O)ccc(O)c2C(=O)c2c(NCCNCCO)ccc(NCCNCCO)c21,95,113,127,131,120,124,29.3,92.4,27.3,24.3,5.26,102,102,107,108,100,105,18.5,110,18.2,17.2,4.37,107,113,108,113,112,103,53.2,107,20.3,27.1,3.81
O=C(c1ccc(Nc2nccc(-c3cc4ccccc4s3)n2)cc1)N1CCC(N2CCCC2)CC1,122,132,125,125,124,114,105,95.3,104,41.8,1.51,113,126,107,110,106,119,118,101,96.2,91.3,2.67,122,129,115,114,124,106,120,121,95,80.2,2.88
C[C@]12CC[C@@H]3c4ccc(O)cc4C[C@@H](CCCCCCCCC[S+]([O-])CCCC(F)(F)C(F)(F)F)[C@H]3[C@@H]1CC[C@@H]2O (some centres not stated),–,–,–,–,–,–,–,–,–,–,–,103,118,104,131,121,113,107,104,115,118,104,–,–,–,–,–,–,–,–,–,–,–
O=C(Nc1cc2cc[nH]c2cn1)c1ccccc1,97.5,116,94.4,122,108,102,123,103,21,4.39,0.639,95.6,101,97.2,110,100,108,99.4,88.4,54.6,18.9,2.79,96.6,104,102,98.5,103,105,105,94,59.1,45.9,7.31
COc1ccc(C2CNC(=O)C2)cc1OC1CCCC1 (configuration not stated),78.4,105,91.4,97.7,122,105,105,112,101,99.6,106,85.8,92.4,92,103,109,95.1,92.5,100,92.4,91.8,107,92.1,94.5,93.8,95.2,102,96.7,104,94.7,104,98.7,94.9
